Experimental data published in ChEMBL document CHEMBL1146800, “Structure-based design of amidinophenylurea-derivatives for factor VIIa inhibition” (Bioorg Med Chem Lett, 2004).

Columns and labels:
Prothrombin = Prothrombin (Homo sapiens, UniProt P00734); test: In vitro inhibition of thrombin
Coagulation factor X = Coagulation factor X (Homo sapiens, UniProt P00742); test: In vitro inhibition of coagulation factor X
Coagulation factor VII = molecular target: T1, Coagulation factor VII (Homo sapiens, UniProt P08709); test: In vitro inhibition of human coagulation factor VIIa
T1 sequence (P08709 whole entry): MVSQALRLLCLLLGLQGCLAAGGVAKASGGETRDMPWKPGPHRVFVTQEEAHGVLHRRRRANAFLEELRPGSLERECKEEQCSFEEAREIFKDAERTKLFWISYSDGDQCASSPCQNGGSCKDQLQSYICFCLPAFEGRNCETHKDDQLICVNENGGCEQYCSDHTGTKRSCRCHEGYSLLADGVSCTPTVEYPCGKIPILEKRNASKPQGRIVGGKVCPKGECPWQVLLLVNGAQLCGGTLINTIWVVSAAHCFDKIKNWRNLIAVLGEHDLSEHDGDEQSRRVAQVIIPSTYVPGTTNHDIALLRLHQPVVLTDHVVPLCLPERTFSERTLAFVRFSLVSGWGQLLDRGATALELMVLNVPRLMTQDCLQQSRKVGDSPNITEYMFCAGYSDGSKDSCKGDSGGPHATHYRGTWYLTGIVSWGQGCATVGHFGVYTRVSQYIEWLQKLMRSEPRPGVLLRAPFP

Sequence of Coagulation factor X (P00742 41-179 limits assumed): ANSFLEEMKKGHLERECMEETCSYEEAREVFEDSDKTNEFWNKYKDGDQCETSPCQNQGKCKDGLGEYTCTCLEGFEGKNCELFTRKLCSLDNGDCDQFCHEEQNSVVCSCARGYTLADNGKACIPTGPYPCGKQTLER
Sequence of Coagulation factor X (P00742 235-488 limits assumed): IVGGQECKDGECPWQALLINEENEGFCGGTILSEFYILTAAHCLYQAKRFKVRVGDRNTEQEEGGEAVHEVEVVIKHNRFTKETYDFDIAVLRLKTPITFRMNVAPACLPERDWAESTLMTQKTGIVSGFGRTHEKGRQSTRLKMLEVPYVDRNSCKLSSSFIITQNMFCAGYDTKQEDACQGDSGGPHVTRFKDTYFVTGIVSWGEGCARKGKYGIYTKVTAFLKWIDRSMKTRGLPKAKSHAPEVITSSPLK

Row | Compound | Ki (Prothrombin) | Ki (Coagulation factor X) | Ki (Coagulation factor VII)
1 | COc1ccc(Oc2ccc(C(C)NC(=O)CNC(=O)Nc3ccc(C(=N)N)cc3)cc2)cc1 (stereo not given) | 9.8 µM | 10.7 µM | 
2 | CC(NC(=O)CNC(=O)Nc1ccc(C(=N)N)cc1)c1ccc(N2CCOCC2)c(Br)c1 (stereo not given) | 0.65 µM | > 10 µM | 0.015 µM
3 | N=C(N)c1ccc(NC(=O)NCC(=O)NCc2ccc(Cl)c(Cl)c2)cc1 |  | 14.5 µM | 
4 | CC(NC(=O)CNC(=O)Nc1ccc(C(=N)N)cc1)c1ccc(C(=O)Nc2cccc(Oc3ccccc3)c2)cc1 (stereo not given) | 11.9 µM | > 10 µM | 0.043 µM
5 | CC(NC(=O)CNC(=O)Nc1ccc(C(=N)N)cc1)c1ccc(N2CCOCC2)c(C(F)(F)F)c1 (stereo not given) | 1.9 µM | > 10 µM | 0.03 µM
6 | CC(NC(=O)CNC(=O)Nc1ccc(C(=N)N)cc1)c1ccc(OCc2cccc(Cl)c2)cc1 (stereo not given) | 2.3 µM | > 10 µM | 0.023 µM
7 | COC(=O)c1cc(C(C)NC(=O)CNC(=O)Nc2ccc(C(=N)N)cc2)ccc1OCc1ccccc1 (stereo not given) | 0.5 µM | > 10 µM | 
8 | CC(NC(=O)CNC(=O)Nc1ccc(C(=N)N)cc1)c1ccc(NC(=O)c2cccc(Oc3ccccc3)c2)cc1 (stereo not given) | 33.2 µM | > 10 µM | 
9 | COc1cccc(COc2ccc(C(C)NC(=O)CNC(=O)Nc3ccc(C(=N)N)cc3)cc2)c1 (stereo not given) | 2.3 µM | > 10 µM | 0.02 µM
10 | CC(NC(=O)CNC(=O)Nc1ccc(C(=N)N)cc1)c1ccc(OCc2ccccc2)cc1 (stereo not given) |  |  | 0.133 µM
11 | CC(NC(=O)CNC(=O)Nc1ccc(C(=N)N)cc1)c1cccc(OCc2ccccc2)c1 (stereo not given) |  |  | 0.256 µM

Further lines, results first:

Row | Ki (Prothrombin) | Ki (Coagulation factor X) | Ki (Coagulation factor VII) | Compound
12 | 14.8 µM | 4.6 µM | 0.034 µM | CC(NC(=O)CNC(=O)Nc1ccc(C(=N)N)cc1)c1ccc(NC(=O)c2ccccc2)cc1 (stereo not given)
13 | 3.18 µM | 6.23 µM |  | C[C@H](NC(=O)CNC(=O)Nc1ccc(C(=N)N)cc1)c1ccc2ccccc2c1
14 |  |  | 7 µM | C[C@@H](NC(=O)CNC(=O)Nc1ccc(C(=N)N)cc1)c1ccc2ccccc2c1
15 | 6.76 µM | > 10 µM | 0.156 µM | C[C@H](NC(=O)CNC(=O)Nc1ccc(C(=N)N)cc1)c1ccc(Br)cc1
16 | 12.1 µM | > 10 µM | 0.02 µM | CC(NC(=O)CNC(=O)Nc1ccc(C(=N)N)cc1)c1ccc(C(=O)Nc2ccccc2)cc1 (stereo not given)
17 | 3.2 µM | > 10 µM | 0.142 µM | CC(NC(=O)CNC(=O)Nc1ccc(C(=N)N)cc1)c1ccc(N2CCOCC2)cc1 (stereo not given)
18 | 10.9 µM | > 10 µM | 0.026 µM | Cc1cccc(C(=O)Nc2ccc(C(C)NC(=O)CNC(=O)Nc3ccc(C(=N)N)cc3)cc2)c1 (stereo not given)
19 | > 50 µM | > 10 µM | 0.196 µM | CC(=O)Nc1ccc(C(C)NC(=O)CNC(=O)Nc2ccc(C(=N)N)cc2)cc1 (stereo not given)
20 |  |  | 0.077 µM | CC(NC(=O)CNC(=O)Nc1ccc(C(=N)N)cc1)c1ccc(Cl)c(Cl)c1 (stereo not given)
21 | 14.5 µM | > 10 µM | 0.047 µM | CC(NC(=O)CNC(=O)Nc1ccc(C(=N)N)cc1)c1ccc(NC(=O)C2CC2)cc1 (stereo not given)
22 |  |  | 0.19 µM | CC(NC(=O)CNC(=O)Nc1ccc(C(=N)N)cc1)c1ccc(Cc2ccccc2)cc1 (stereo not given)
23 | 68.5 µM | > 10 µM |  | CC(NC(=O)CNC(=O)Nc1ccc(C(=N)N)cc1)c1ccc(NC(=O)C2CCNCC2)cc1 (stereo not given)
24 | 9.1 µM | > 10 µM | 0.078 µM | CC(NC(=O)CNC(=O)Nc1ccc(C(=N)N)cc1)c1ccc(Oc2ccccc2)cc1 (stereo not given)
